{"source": "patent US5945450A", "about": "“Naphthalene derivative” (Teijin Limited, priority 1994, dated 1999)", "key": {"[1]": {"system": "leukotrien B4 (LTB4) production", "test": "Inhibition of leukotrien B4 (LTB4) production in RBL-1 basophils", "format": "cell-based", "conditions": "Rattus norvegicus; RBL-1 cells, calcium ionophore A23187", "protocol": "The basophils from rats of RBL-1 line (Dainippon Pharmaceutical Co.) cultured on DMEM (Dulbecco's modified Eagle medium) containing 10% FCS suspended in 10 mM HEPES-NaOH buffer (pH 7.4), 90 mM NaCl, 3.7 mM KCl, 0.9 mM CaCl2, 5.6mM glucose, and the compound of this invention listed in Table 8 as a test drug, to give a suspension of a density of 2×10^6 cells/ml. The suspension was allowed to stand at 37 for 5 minutes, and calcium ionophores A23187 were added thereto in such a manner that the concentration of […] was obtained in the end. The reaction was allowed to proceed at 37 for 10 minutes, and the supernatant was sampled for the ELISA assay (Cayman Chemical, Catalog No. 520111, and J. Immunol., 119:618-622, 1977) of leukotrien B4 (LTB4). IC50 of a given compound of this invention for inhibition of leukotrien production was calculated relative to the production of LTB4 when the compound was not coexistent."}, "[2]": {"system": "IgE", "test": "In vivo inhibition of IgE production in TNP-KLH immunized mice", "design": "species or system BDF1 mice", "conditions": "100 mg/kg/day subcutaneously, twice a day for 10 days, N=10", "protocol": "(§1) TNP-KLH (trinitrophenyl-keyhole-lymphet-hemocyanin) was prepared by the method as described in J. Immunol., 97:421-430, 1966 from KLH and trinitrobenzene sulfonic acid. A […] of TNP-KLH suspended in 0.2 ml of saline and 1 mg of aluminum hydroxide gel were injected into the peritoneal cavity of BDF1 mice (8 weeks old) for immunization. From the day of immunization onward, the compound of this invention listed in Table 5 was given subcutaneously to the same animal twice a day for 10 days (100 mg/kg/day, dissolved in 0.5% Tween 80 in saline, and N=10). To the control group, 0.5% Tween 80 in saline was given at the same time schedule (N=10). Ten days after immunization, blood was extracted from the heart, and the concentrations of IgE, IgG1 and IgM antibodies were determined by ELISA (Immunol. Lett., 23:251-256, 1990, and Eur. J. Immunol., 20:2499-2503, 1990). Inhibition (%) of the antibody production with respect to the control was calculated."}, "[3]": {"system": "IgG1", "test": "In vivo inhibition of IgG1 production in TNP-KLH immunized mice", "design": "species or system BDF1 mice", "conditions": "100 mg/kg/day subcutaneously, twice a day for 10 days, N=10", "protocol": "as §1"}, "[4]": {"system": "mast cells of the rat", "test": "Inhibition of histamine release from rat mast cells", "format": "cell-based, rat (SD strain)", "conditions": "Mast cell, read-out: Inhibiton of histamine release (%)", "protocol": "A 1 ml of anti-DNP-Ascaris (Didets) anti-serum (prepared as described in J. Immunol., 106:1002, 1971) was injected into the peritoneal cavity of 5 SD strain rats of 7 weeks old. Forty eight hours later, the animals were bled to death, and 20 ml of HBSS (Hanks balanced salt solution) was injected into their peritoneal cavity. After about 90 second massaging, the HBSS washing was recovered, and cells released into the peritoneal cavity were collected from the washing. The ascitic cells thus collected were washed once with 0.1% BSA/Tyrode-HEPES, and then resuspended in 0.1% BSA/Tyrode-HEPES to give a suspension with a density of 5×10^6 cells/ml. The cell suspension was incubated at 37° C. for 10 minutes in the presence/absence of a test substance, that is, the compound listed in Table 6.\nTo the resulting mixture was added a histamine releasing agent (20 μg/ml of DNP-Ascaris (DNP-As) (Didets)+25 μg/ml of phosphatidylserine (PS) or 0.2 μg/ml of calcium ionophore A23187), and the reaction was allowed to proceed at 37° C. for 20 minutes. Then, the cell suspension was centrifuged to obtain supernatant. Histamine released in the supernatant was determined by the fluorescent method (J. Pharmacol. Exp. Ther. 127:182, 1959). Inhibitory effect (%) of a given compound of this invention on histamine release was calculated relative to the histamine release when the compound was not coexistent."}, "[5]": {"system": "IgM", "test": "In vivo inhibition of IgM production in TNP-KLH immunized mice", "design": "species or system BDF1 mice", "conditions": "100 mg/kg/day subcutaneously, twice a day for 10 days, N=10", "protocol": "as §1"}, "[6]": {"system": "human IgE antibodies", "test": "In vitro inhibition of the production of human IgE antibodies (lymphocytes + IL-4 + anti CD40Ab + IL-10, ELISA)", "format": "cell-based", "conditions": "Lymphocyte, read-out: Inhibition of antibody production (%) IgE", "protocol": "According to the method described in J. Immunol., 146:1836-1842, 1991 and J. Immunol., 147:8-13, 1991, the concentrations of IgE and IgG antibodies were measured by the procedures described below.\nPeripheral venous blood was sampled from the healthy person, and submitted to density-gradient centrifugation to isolate lymphocytes. The lymphocytes thus obtained were washed and suspended in a culture medium (RPMI-1640 (provided by Gibco)+10% heat-inactivated FCS (Whittaker)+100 µg/ml streptomycin+100 U/ml penicillin+2mM L-glutamine). The cell suspensions were cultured for 1 week in the presence/absence of the compounds of this invention at the concentrations as described in Tables 3-1 to 3-2 together with human interleukin 4 (IL-4, Genzyme)([…]), anti CD40 antibodies (anti CD40Ab, Biosource, clone B-B20)([…]) and human interleukin 10 (IL-10, Genzyme)([…]). The culture medium was supplied freshly to the cell suspension, and the mixture was further cultured for another week. The supernatant was sampled and the concentrations of IgE and IgG antibodies therein were measured by sandwich ELISA.\nThe ELISA was based, for the assay of IgE antibodies, on the use of rabbit anti-human IgE() antibodies (ICN) as the primary antibody and biotin-linked anti-human IgE monoclonal antibodies (G7-26, PharMingen) as the secondary antibody. For the assay of IgG antibodies, anti-human IgG monoclonal antibodies (G18-145, PharMingen) and biotin-linked donkey anti-human IgG antibodies (H+L)(Jackson) were used for the primary and secondary antibodies, respectively. For the assay of both IgE and IgG antibodies, Avidin-Biotin-Horse Radish Peroxidase (ABC kit, Vector Lab) and TMB (3,3',5,5'-tetramethylbenzidine) microwell peroxidase substrate system (Kirkegaard & Perry Laboratories Inc.) were used as the enzyme and the substrate, respectively. The assays were made by the use of conventionally known ELISA.\nThe inhibitory effect (%) of a given compound of this invention on the production of the antibody was calculated with respect to the concentration of the same antibody when the compound was not coexistent (refer to Uejima et al., American Academy of Allergy and Immunology, Proceedings of 1995 Annual Meeting, Program No. 818)."}, "[7]": {"conditions": "releasing agent DNP-As + PS, 10 μM"}, "[8]": {"conditions": "releasing agent DNP-As + PS, 100 μM"}, "[9]": {"conditions": "releasing agent calcium ionophore A23187, 10 μM"}, "[10]": {"conditions": "releasing agent calcium ionophore A23187, 100 μM"}}, "note": "Like-named read-outs stand apart in the source and are kept apart here."}
{"smiles": "O=C(Nc1ccccc1C(=O)O)c1ccc(Oc2ccc3ccccc3c2)cc1", "note": "[Compound No. 1104, 2-(4-(2-naphtyloxy)benzamide)benzoic Acid]", "values": [{"measurement": "IC50", "setting": "[1]", "result": 210, "unit": "nM"}, {"measurement": "Inhibition of antibody production (%) IgE", "setting": "[2]", "result": 60.4, "unit": "%"}, {"measurement": "Inhibition of antibody production (%) IgG1", "setting": "[3]", "result": 24.4, "unit": "%"}, {"measurement": "inhibition at 10 µM", "setting": "[4]; [7]", "result": 42.7, "unit": "%"}, {"measurement": "inhibition at 100 µM", "setting": "[4]; [8]", "result": 84.2, "unit": "%"}, {"measurement": "inhibition at 10 µM", "setting": "[4]; [9]", "result": 75.4, "unit": "%"}, {"measurement": "inhibition at 100 µM", "setting": "[4]; [10]", "result": 78, "unit": "%"}, {"measurement": "Inhibition of antibody production (%) IgM", "setting": "[5]", "result": 56.1, "unit": "%"}, {"measurement": "inhibition at 1 µM", "setting": "[6]", "result": 35.9, "unit": "%"}, {"measurement": "inhibition at 3 µM", "setting": "[6]", "result": 85.6, "unit": "%"}, {"measurement": "inhibition at 10 µM", "setting": "[6]", "result": 98.2, "unit": "%"}]}
{"smiles": "O=C(Cc1ccc(Oc2ccc3ccccc3c2)cc1)Nc1ccccc1C(=O)O", "note": "[Compound No. 1126, 2-(4-(2-naphtyloxy)phenylacetamide)benzoic acid]", "values": [{"measurement": "IC50", "setting": "[1]", "result": 600, "unit": "nM"}, {"measurement": "Inhibition of antibody production (%) IgE", "setting": "[2]", "result": 78.9, "unit": "%"}, {"measurement": "Inhibition of antibody production (%) IgG1", "setting": "[3]", "result": 46.8, "unit": "%"}, {"measurement": "inhibition at 10 µM", "setting": "[4]; [7]", "result": 25.4, "unit": "%"}, {"measurement": "inhibition at 100 µM", "setting": "[4]; [8]", "result": 90.2, "unit": "%"}, {"measurement": "inhibition at 10 µM", "setting": "[4]; [9]", "result": 54.2, "unit": "%"}, {"measurement": "inhibition at 100 µM", "setting": "[4]; [10]", "result": 79.8, "unit": "%"}, {"measurement": "Inhibition of antibody production (%) IgM", "setting": "[5]", "result": 70.2, "unit": "%"}, {"measurement": "inhibition at 1 µM", "setting": "[6]", "result": 63.9, "unit": "%"}, {"measurement": "inhibition at 3 µM", "setting": "[6]", "result": 93.5, "unit": "%"}, {"measurement": "inhibition at 10 µM", "setting": "[6]", "result": 97.9, "unit": "%"}]}
